Structures can show the parent of a compound that is named as a salt.
How the values were obtained:
[1] = Hemolytic activity against mouse erythrocytes; format: cell-based; conditions: CD-1, mouse erythrocyte suspension, pH 7.4, 24 h at 37 °C, read-out: Cytotoxicity EC50, Erhythrocytes (hemolytic activity)
Method: Blood was taken from CD-1 mice (18–20 g). The mice were anesthetized with diethyl ether, their chests were rapidly opened, and blood was collected in cold (4 °C) 10 mM phosphate-buffered saline, pH 7.4 (PBS) without anticoagulant. Erythrocytes were washed 3 times in PBS using at least 10 vol. of washing solution by centrifugation (2000 rpm) for 5 min. Erythrocytes were used at a concentration that provided an optical density of 1.0 at 700 nm for a non-hemolyzed sample. Then, 20 μL of a water solution of test substance with a fixed concentration was added to a well of a 96-well plate containing 180 μL of the erythrocyte suspension. Erythrocyte suspension was incubated with substances for 24 h at 37 °C. After that, the optical density of the obtained solutions was measured and ED50 for hemolytic activity of each compound was calculated.

[2] = Cytotoxicity against neuroblastoma Neuro 2A cells (nonspecific esterase activity assay); format: cell-based, mouse; conditions: mouse neuroblastoma Neuro 2A cells
Method: (§1) The museum tetraploid strain of murine ascite Ehrlich carcinoma cells from the All-Russian Oncology Center (Moscow, Russia) was used. The cells were separated from the ascites, which were collected on day 7 after inoculation in mouse CD-1 line. The cells were washed of the ascites triply and resuspended in RPMI-1640 medium containing 8 μg/mL gentamicin (BioloT, St-Petersburg, Russia). Neuroblastoma Neuro 2A cells were cultured in DMEM medium containing 10% fetal bovine serum (FBS), (BioloT, St-Petersburg, Russia) and normal epithelial JB-6 cells were cultured in DMEM medium containing 5% fetal bovine serum (FBS), (BioloT, St-Petersburg, Russia) and 1% penicillin/streptomycine (Invitrogen). The HT-29 (ATCC # HTB-38) human colon cancer cell line was grown in monolayer in McCoy’s 5A medium supplemented with 10% (v/v) heat-inactivated FBS, 2 mM L-glutamine, and 1% penicillin-streptomycin in a humidified atmosphere containing 5% CO2. Cells were maintained in a sterile environment and kept in an incubator at 5% CO2 and 37 °C to promote growth. HT-29 cells were sub-cultured every 3–4 days by rinsing with phosphate buffered saline (PBS), adding trypsin to detach the cells from the tissue culture flask, and transferring 10%–20% of the harvested cells to a new flask containing fresh growth media.
(§2) Cytotoxic activity against ascite form of mouse Ehrlich carcinoma cells was investigated by nonspecific esterase activity assay. In total, 10µL of the test substance solution and 100 μL of the cell suspension were placed into each well of a 96-well microplate. The plate was incubated in a CO2 incubator at 37 °C for 1 or 24 h. A stock solution of the probe fluorescein diacetate (FDA; Sigma, St. Louis, MO, USA) in DMSO (1 mg/mL) was prepared. After incubation of the cells with test compounds, 10 μL of FDA solution (50 μg/mL) was added to each well and the plate was incubated at 37 °C for 15 min. Cells were washed with PBS, and fluorescence was measured with a Fluoroskan Ascent plate reader (Thermo Labsystems, Helsinky, Finland) at λex = 485 nm and λem = 518 nm. All experiments were repeated in triplicate. Cytotoxic activity was expressed as the percent of cell viability. Nonspecific esterase activity assay has been used for determination of cytotoxicity against neuroblastoma Neuro 2A and normal epithelial JB-6 cells.

[3] = system: human colorectal adenocarcinoma HT-29 cells; assay: MTS assay, cell viability of HT-29 cells; format: cell-based; conditions: Homo sapiens, 0–20 μM, 24 h
Method: as §1
The HT-29 cells (1.0 × 10^4/well) were seeded in 96-well plates for 24 h at 37 °C in 5% CO2 incubator. The cells were treated with the tested substances at concentrations range from 0 to 20 μM for an additional 24 h. Subsequently, cells were incubated with 15 μL MTS reagent for 3 h and the absorbance in each well was measured at 490/630 nm using microplate reader “Power Wave XS” (Bio Tek, Winooski, VT, USA). All the experiments were repeated three times, and the mean absorbance values were calculated. The results are expressed as the percentage of inhibition that produced a reduction in absorbance by compound’s treatment compared to the non-treated cells (control).

[4] = system: human colorectal adenocarcinoma HT-29 cells; assay: Soft agar assay, colony formation and growth of HT-29 cells; format: cell-based; conditions: Homo sapiens, 336 h, 0–10 μM, 14 days, read-out: Soft Agar Assay ICCF50 (inhibition of colony formation)
Method: as §1
The HT-29 cells (8.0 × 10^3) were seeded in 6-well plate and treated with the tested compounds at concentrations range 0–10 μM in 1 mL of 0.3% Basal Medium Eagle (BME) agar containing 10% FBS, 2mM L-glutamine, and 25 μg/mL gentamicin. The cultures were maintained at 37 °C in a 5% CO2 incubator for 14 days, and the cell’s colonies were scored using a microscope “Motic AE 20” (Scientific Instrument Company, Campbell, CA, USA) and the Motic Image Plus version 2.0 (Scientific Instrument Company, Campbell, CA, USA) computer program.

[5] = Cytotoxic activity against ascite form of mouse Ehrlich carcinoma cells (nonspecific esterase / MTT assay); format: cell-based; conditions: ascite form of mouse Ehrlich carcinoma cells; read-out: Cytotoxicity EC50, Ehrlich carcinoma
Method: as §1, §2
The solutions of tested substances in different concentrations (20 µL) and cell suspension (200 µL) were added in wells of 96-well plate and incubated over night at 37 °C and 5% CO2. After incubation, the cells were sedimented by centrifugation, 200 µL of medium from each well were collected, and 100 µL of pure medium were added. Then, 10 µL of MTT solution […] (Sigma, St. Louis, MO, USA) were added in each well. The plate was incubated for 4 h, after which 100 µL SDS-HCl were added to each well, and the plate was incubated at 37 °C for 4–18 h. Optical density was measured at 570 nm and 630–690 nm. Cytotoxic activity of the substances was calculated as the concentration that caused 50% metabolic cell activity inhibition (IC50). The MTT assay has been used for determination of cytotoxic activity against Ehrlich carcinoma cells.

[6] = Cytotoxicity against normal epithelial JB-6 cells (nonspecific esterase activity assay); format: cell-based, mouse; conditions: mouse, normal epithelial JB-6 cells
Method: as §1, §2

SMILES	EC50 at 24 h [1] [µM]	EC50 [2] [µM]	IC50 [3] [µM]	IC50 [4] [µM]	EC50 [5] [µM]	EC50 [6] [µM]
C=C(C)CCC[C@]1(C)OC(=O)[C@]23CC=C4[C@@H](CC[C@H]5C(C)(C)[C@@H](O[C@@H]6OC[C@@H](O)[C@H](O)[C@H]6O[C@@H]6O[C@H](C)[C@@H](O[C@@H]7O[C@H](COS(=O)(=O)O)[C@@H](O)[C@H](O[C@@H]8O[C@H](CO)[C@@H](O)[C@H](OC)[C@H]8O)[C@H]7O)[C@H](O)[C@H]6O)CC[C@]45C)[C@]2(C)CC(=O)[C@@H]31 [Psolusoside E (2), 3β-O-[3-O-methyl-β-D-glucopyranosyl-(1→3)-6-O-sodium-sulfate-β-D-glucopyranosyl-(1→4)-β-D-quinovopyranosyl-(1→2)-β-D-xylopyranosyl]-16-ketoholosta-9(11),25-diene]	0.23	3.96	> 20	0.1 ± 0.03	55.8	–
C=C(C)CCC[C@]1(C)OC(=O)[C@]23CC=C4[C@@H](CC[C@H]5C(C)(C)[C@@H](O[C@@H]6OC[C@@H](O)[C@H](O)[C@H]6O[C@@H]6O[C@H](C)[C@@H](O[C@@H]7O[C@H](CO)[C@@H](O)[C@H](O[C@@H]8O[C@H](COS(=O)(=O)O)[C@@H](O)[C@H](OC)[C@H]8O)[C@H]7O)[C@H](O)[C@H]6O)CC[C@]45C)[C@]2(C)CC(=O)[C@@H]31 [Psolusoside F (3), 3β-O-[6-O-sodium-sulfate-3-O-methyl-β-D-glucopyranosyl-(1→3)-β-D-glucopyranosyl-(1→4)-β-D-quinovopyranosyl-(1→2)-β-D-xylopyranosyl]-16-ketoholosta-9(11),25-diene]	2.8	10.8	> 20	0.5 ± 0.03	96.2	23.8
C=C(C)CCC[C@]1(C)OC(=O)[C@]23CC[C@@H]4C(=CC[C@H]5C(C)(C)[C@@H](O[C@@H]6OC[C@@H](O)[C@H](O)[C@H]6O[C@@H]6O[C@H](CO)[C@@H](O[C@@H]7O[C@H](COS(=O)(=O)O)[C@@H](O)[C@H](O)[C@H]7O)[C@H](O)[C@H]6O)CC[C@]45C)[C@]2(C)CC[C@@H]31 [Psolusoside H1 (6), 3β-O-[6-O-sodium-sulfate-β-D-glucopyranosyl-(1→4)-β-D-glucopyranosyl-(1→2)-β-D-xylopyranosyl]-holosta-7,25-diene]	2.7	10.7	> 20	9 ± 0.3	92.5	32.3
C=C(C)CCC[C@]1(C)OC(=O)[C@]23CC[C@@H]4C(=CC[C@H]5C(C)(C)[C@@H](O[C@@H]6OC[C@@H](O)[C@H](O)[C@H]6O[C@@H]6O[C@H](CO)[C@@H](O[C@@H]7O[C@H](COS(=O)(=O)O)[C@@H](O)[C@H](O)[C@H]7O)[C@H](O)[C@H]6O)CC[C@]45C)[C@]2(C)CC(=O)[C@@H]31 [Psolusoside H (5), 3β-O-[6-O-sodium-sulfate-β-D-glucopyranosyl-(1→4)-β-D-glucopyranosyl-(1→2)-β-D-xylopyranosyl]-16-ketoholosta-7,25-diene]	2.5	47.5	> 20	> 10	> 100	43.2
C=C(C)CCC[C@](C)(OC(C)=O)[C@H]1[C@@H]2C[C@@]3(C)C4=CC[C@H]5C(C)(C)[C@@H](O[C@@H]6OC[C@@H](O[C@@H]7O[C@H](CO)[C@@H](O)[C@H](O)[C@H]7OS(=O)(=O)O)[C@H](O)[C@H]6O[C@@H]6O[C@H](CO)[C@@H](O[C@@H]7O[C@H](COS(=O)(=O)O)[C@@H](O)[C@H](O)[C@H]7O)[C@H](O)[C@H]6O)CC[C@]5(C)[C@@H]4CC[C@]13C(=O)O2 [psolusoside B (1), 3β-O-{6-O-sodium sulfate-β-D-glucopyranosyl-(1→4)-β-D-glucopyranosyl-(1→2)-[2-O-sodium sulfate-β-D-glucopyranosyl-(1→4)]-β-D-xylopyranosyl}-9βH,20(S)-acetoxylanosta-7,25-diene-18(16)-lactone]	–	–	> 20	> 10	–	–

From publication PMC6627558, “Structures and Bioactivities of Six New Triterpene Glycosides, Psolusosides E, F, G, H, H1, and I and the Corrected Structure of Psolusoside B from the Sea Cucumber Psolus fabricii” (Marine Drugs, 2019)
